Results reported in patent US10273248B2, “Glucose uptake inhibitors” (Kadmon Corporation LLC, priority 2015, dated 2019).
Where a name gives a salt, the structure may show the parent alone.

Tested on: glycolysis in HT1080 cells
Experiment: Glycolysis assay: oligomycin plus compound, cellular ATP by Cell Titer Glo
Format: cell-based
Details: 10 μM oligomycin, one hour, class symbols
Description: Therefore, an assay was developed that utilizes the combination of the glucose uptake inhibitors disclosed herein with oligomycin, a well-characterized inhibitor of ATP synthase. Because oligomycin inhibits ATP derived from oxidative phosphorylation, any remaining ATP production is derived from glycolysis. By reading out cellular ATP levels using the Promega Cell Titer Glo kit, the extent of glycolysis inhibition by the glucose uptake inhibitors disclosed herein can be assessed. […] Utilizing this experimental set-up, the IC50 of glycolysis inhibition for each compound can be determined.
Determination of Glucose Uptake/GLUT Activity (Glycolysis Assay):
HT1080 cells (as well as other cell types) were plated to confluency in 96-well plates. Cells were exposed to the combination of 10 μM Oligomycin (to block mitochondrial-derived ATP) and the glucose uptake inhibitors disclosed herein for one-hour, after which glycolytically-derived ATP was measured with the Cell Titer-Glo assay kit (Promega). Dose-response curves of the glucose uptake inhibitors disclosed herein were used to determine the IC50 for GLUT activity.

Compound | IC50 [nM]
O=C(Nc1cccc(-c2nc(Nc3ccc(-c4cn[nH]c4)cc3)c3sccc3n2)c1)c1cccnc1 [Example 43, N-(3-(4-((4-(1H-pyrazol-4-yl)phenyl)amino)thieno[3,2-d]pyrimidin-2-yl)phenyl)nicotinamide] | 101 to 250

Same assay, conditions: Homo sapiens, HT-1080, 1 h, 10 μM oligomycin, one hour, class symbols

Compound | IC50 [nM]
CC(C)(C)NC(=O)COc1cccc(-c2nc(Nc3ccc(-c4cn[nH]c4)cc3)c3ccncc3n2)c1 [Example 136, 2-(3-(4-((4-(1H-pyrazol-4-yl)phenyl)amino)pyrido[3,4-d]pyrimidin-2-yl)phenoxy)-N-(tert-butyl)acetamide] | 10 to 100
O=C(COc1cccc(-c2nc3c(c(Nc4ccc(-c5cn[nH]c5)cc4)n2)COC3)c1)NC1CCCCC1 [Example 89, 2-(3-(4-((4-(1H-pyrazol-4-yl)phenyl)amino)-5,7-dihydrofuro[3,4-d]pyrimidin-2-yl)phenoxy)-N-cyclohexylacetamide] | 10 to 100
CCC(C)(C)NC(=O)COc1cccc(-c2nc(Nc3ccc(-c4cn[nH]c4)cc3)c3sccc3n2)c1 [Example 111, 2-(3-(4-((4-(1H-pyrazol-4-yl)phenyl)amino)thieno[3,2-d]pyrimidin-2-yl)phenoxy)-N-(tert-pentyl)acetamide] | 101 to 250
CC(C)NC(=O)COc1cccc(-c2nc(Nc3ccc4[nH]ncc4c3)c3ccsc3n2)c1 [Example 17] | > 1000
Cc1ccc(CNc2cccc(-c3nc4c(c(Nc5ccc(-c6cn[nH]c6)cc5)n3)COC4)c2)cn1 [Example 91, N-(4-(1H-pyrazol-4-yl)phenyl)-2-(3-(((6-methylpyridin-3-yl)methyl)amino)phenyl)-5,7-dihydrofuro[3,4-d]pyrimidin-4-amine] | > 1000
O=C(CN1CCOCC1)Nc1cccc(-c2nc(Nc3ccc4[nH]ncc4c3)c3sccc3n2)c1 [Example 16] | > 1000
Cn1ncc2c(Nc3ccc(-c4cn[nH]c4)cc3)nc(-c3cccc(OCC(=O)NC4CCCC4)c3)nc21 [Example 56, 2-(3-(4-((4-(1H-pyrazol-4-yl)phenyl)amino)-1-methyl-1H-pyrazolo[3,4-d]pyrimidin-6-yl)phenoxy)-N-cyclopentylacetamide] | 101 to 250
O=C(CN1CCOCC1)Nc1cccc(-c2nc(Nc3ccc(-c4cn[nH]c4)cc3)c3occc3n2)c1 [Example 4, N-(3-(4-((4-(1H-pyrazol-4-yl)phenyl)amino)furo[3,2-d]pyrimidin-2-yl)phenyl)-2-morpholinoacetamide] | > 1000
CCC(CC)NC(=O)COc1cccc(-c2nc3c(c(Nc4ccc(-c5cn[nH]c5)cc4)n2)CN(C(C)C)CC3)c1 [Example 119, 2-(3-(4-((4-(1H-pyrazol-4-yl)phenyl)amino)-6-isopropyl-5,6,7,8-tetrahydropyrido[4,3-d]pyrimidin-2-yl)phenoxy)-N-(pentan-3-yl)acetamide] | 501 to 1000
CC(C)NC(=O)COc1cccc(-c2nc(Nc3ccc4[nH]ncc4c3)c3ncn(C)c3n2)c1 [Example 13] | > 1000
CC(=O)N1Cc2nc(-c3cccc(OCC(=O)NC(C)(C)C)c3)nc(Nc3ccc(-c4cn[nH]c4)cc3)c2C1 [Example 142, 2-(3-(4-((4-(1H-pyrazol-4-yl)phenyl)amino)-6-acetyl-6,7-dihydro-5H-pyrrolo[3,4-d]pyrimidin-2-yl)phenoxy)-N-(tert-butyl)acetamide] | 10 to 100
CCC(CC)NC(=O)COc1cccc(-c2nc3c(c(Nc4ccc(-c5cn[nH]c5)cc4)n2)CN(C(=O)C(C)C)CC3)c1 [Example 153, 2-(3-(4-((4-(1H-pyrazol-4-yl)phenyl)amino)-6-isobutyryl-5,6,7,8-tetrahydropyrido[4,3-d]pyrimidin-2-yl)phenoxy)-N-(pentan-3-yl)acetamide] | 10 to 100
O=C(Nc1cccc(-c2nc(Nc3ccc(-c4cn[nH]c4)cc3)c3sccc3n2)c1)c1ccncc1 [Example 174, N-(3-(4-((4-(1H-pyrazol-4-yl)phenyl)amino)thieno[3,2-d]pyrimidin-2-yl)phenyl)isonicotinamide] | 501 to 1000
O=C(COc1cccc(-c2nc(Nc3ccc(-c4cn[nH]c4)cc3)c3occc3n2)c1)NC1CCCC1 [Example 26] | 251 to 500
Cc1ccc(C(=O)Nc2cccc(-c3nc4c(c(Nc5ccc(-c6cn[nH]c6)cc5)n3)COC4)c2)cn1 [Example 72, N-(3-(4-((4-(1H-pyrazol-4-yl)phenyl)amino)-5,7-dihydrofuro[3,4-d]pyrimidin-2-yl)phenyl)-6-methylnicotinamide] | 10 to 100
Cn1ncc2c(Nc3ccc(-c4cn[nH]c4)cc3)nc(-c3cccc(OCC(=O)NC4CCC4)c3)nc21 [Example 54, 2-(3-(4-((4-(1H-pyrazol-4-yl)phenyl)amino)-1-methyl-1H-pyrazolo[3,4-d]pyrimidin-6-yl)phenoxy)-N-cyclobutylacetamide] | 251 to 500

Compound | IC50 [nM]
CCC(CC)NC(=O)COc1cc(F)cc(-c2nc3c(c(Nc4ccc(-c5cn[nH]c5)cc4)n2)COC3)c1 [Example 88, 2-(3-(4-((4-(1H-pyrazol-4-yl)phenyl)amino)-5,7-dihydrofuro[3,4-d]pyrimidin-2-yl)-5-fluorophenoxy)-N-(pentan-3-yl)acetamide] | 501 to 1000
O=C(COc1cccc(-c2nc(Nc3ccc(-c4cn[nH]c4)cc3)c3ncccc3n2)c1)NC1CCCC1 [Example 51, 2-(3-(4-((4-(1H-pyrazol-4-yl)phenyl)amino)pyrido[3,2-d]pyrimidin-2-yl)phenoxy)-N-cyclopentylacetamide] | 10 to 100
CC(C)(C)NC(=O)COc1cccc(-c2nc3c(c(Nc4ccc(-c5cn[nH]c5)cc4)n2)COC3)c1 [Example 70, 2-(3-(4-((4-(1H-pyrazol-4-yl)phenyl)amino)-5,7-dihydrofuro[3,4-d]pyrimidin-2-yl)phenoxy)-N-(tert-butyl)acetamide dihydrochloride] | 10 to 100
CCN1CCc2nc(-c3cccc(OCC(=O)NC(C)(C)CC)c3)nc(Nc3ccc(-c4cn[nH]c4)cc3)c2C1 [Example 130, 2-(3-(4-((4-(1H-pyrazol-4-yl)phenyl)amino)-6-ethyl-5,6,7,8-tetrahydropyrido[4,3-d]pyrimidin-2-yl)phenoxy)-N-(tert-pentyl)acetamide] | 10 to 100
CC(C)C(=O)N1CCc2nc(-c3cccc(OCC(=O)NCC(C)(C)C)c3)nc(Nc3ccc(-c4cn[nH]c4)cc3)c2C1 [Example 155, 2-(3-(4-((4-(1H-pyrazol-4-yl)phenyl)amino)-6-isobutyryl-5,6,7,8-tetrahydropyrido[4,3-d]pyrimidin-2-yl)phenoxy)-N-neopentylacetamide] | 10 to 100
O=C(Nc1cccc(-c2nc3c(c(Nc4ccc(-c5cn[nH]c5)cc4)n2)COC3)c1)c1cccnc1 [Example 47, N-(3-(4-((4-(1H-pyrazol-4-yl)phenyl)amino)-5,7-dihydrofuro[3,4-d]pyrimidin-2-yl)phenyl)nicotinamide] | 10 to 100
CCC(C)(C)NC(=O)COc1cccc(-c2nc3c(c(Nc4ccc(-c5cn[nH]c5)cc4)n2)CN(C(C)C)CC3)c1 [Example 131, 2-(3-(4-((4-(1H-pyrazol-4-yl)phenyl)amino)-6-isopropyl-5,6,7,8-tetrahydropyrido[4,3-d]pyrimidin-2-yl)phenoxy)-N-(tert-pentyl)acetamide] | 101 to 250
CC(Oc1cccc(-c2nc3c(c(Nc4ccc(-c5cn[nH]c5)cc4)n2)COC3)c1)C(=O)NC(C)(C)C (centres unmarked) [Example 188, 2-(3-(4-((4-(1H-pyrazol-4-yl)phenyl)amino)-5,7-dihydrofuro[3,4-d]pyrimidin-2-yl)phenoxy)-N-(tert-butyl)propanamide] | > 1000
CC(=O)N1CCc2nc(-c3cccc(OCC(=O)NCC(C)C)c3)nc(Nc3ccc(-c4cn[nH]c4)cc3)c2C1 [Example 146, 2-(3-(4-((4-(1H-pyrazol-4-yl)phenyl)amino)-6-acetyl-5,6,7,8-tetrahydropyrido[4,3-d]pyrimidin-2-yl)phenoxy)-N-isobutylacetamide] | 10 to 100
CN1CCN(CC(=O)Nc2cccc(-c3nc(Nc4ccc(-c5cn[nH]c5)cc4)c4occc4n3)c2)CC1 [Example 184, N-(3-(4-((4-(1H-pyrazol-4-yl)phenyl)amino)furo[3,2-d]pyrimidin-2-yl)phenyl)-2-(4-methylpiperazin-1-yl)acetamide] | 501 to 1000
NC(=O)COc1cccc(-c2nc(Nc3ccc(-c4cn[nH]c4)cc3)c3sccc3n2)c1 [Example 139, 2-(3-(4-((4-(1H-pyrazol-4-yl)phenyl)amino)thieno[3,2-d]pyrimidin-2-yl)phenoxy)acetamide] | > 1000
Cc1cncc(CNc2cccc(-c3nc4c(c(Nc5ccc(-c6cn[nH]c6)cc5)n3)COC4)c2)c1 [Example 94, N-(4-(1H-pyrazol-4-yl)phenyl)-2-(3-(((5-methylpyridin-3-yl)methyl)amino)phenyl)-5,7-dihydrofuro[3,4-d]pyrimidin-4-amine] | 501 to 1000
O=C(CN1CCOCC1)Nc1cccc(-c2nc3c(c(Nc4ccc(-c5cn[nH]c5)cc4)n2)COC3)c1 [Example 2, N-(3-(4-((4-(1H-pyrazol-4-yl)phenyl)amino)-5,7-dihydrofuro[3,4-d]pyrimidin-2-yl)phenyl)-2-morpholinoacetamide] | > 1000
CC(C)CNC(=O)COc1cccc(-c2nc3c(c(Nc4ccc(-c5cn[nH]c5)cc4)n2)COCC3)c1 [Example 104, 2-(3-(4-((4-(1H-pyrazol-4-yl)phenyl)amino)-7,8-dihydro-5H-pyrano[4,3-d]pyrimidin-2-yl)phenoxy)-N-isobutylacetamide] | 10 to 100
CC(C)CNC(=O)COc1cccc(-c2nc3c(c(Nc4ccc(-c5cn[nH]c5)cc4)n2)COC3)c1 [Example 78, 2-(3-(4-((4-(1H-pyrazol-4-yl)phenyl)amino)-5,7-dihydrofuro[3,4-d]pyrimidin-2-yl)phenoxy)-N-isobutylacetamide] | 10 to 100
